Data as given in US20250214973A1, “1,4,5-TRISUBSTITUTED-1,2,3-TRIAZOLES AND USES THEREOF” (UNIVERSITY OF PUERTO RICO, priority 2022, published 2025).

Key:
MCF-7 = test: Initial screening, SRB assay GI50; assay type: cell-based; conditions: Homo sapiens, MCF7, 48 hrs
Protocol: (§1) For initial screening, the GIso of compounds 4a-4h in the cell lines MDA-MB-231, MDA-MB-435 and MCF-7 was determined via the SRB-assay for 48 hrs as follows:
(§2) A stock solution of compounds was prepared at 50 mM in 100% DMSO. For cells preparation, a flask of 75 cm^2 or 25 cm^2 were used for 2.6×10^5 cells/mL or 1.44×10^5 cells/mL, respectively, with an 80-90% of confluence. Cells were washed with PBS and trypsinized. The concentration of cells was determined using a 1:2 dilutions with Trypan Blue and a hemocytometer. After cell count, the concentration was adjusted to have a 7.0-10.0×10^4 cells/mL. Approximately 100 μL of cells suspension, compounds, control positive and control negative were added in triplicates to a 96 well plate. Positive control used was doxorubicin, and the negative control was DMSO 0.1%. All compounds (4a-h) at 50, 25, 12.5, 6.3, and 1.6 μM were incubated with cells at 37° C. for 48 hrs. For fixation, cold TCA 50% was used and incubated at 4° C. for 1 h. Wells were washed and dried prior to tincture with 100 μL of SRB 0.4%. To remove excess of SRB, acetic acid was used. For analysis, TRIS-BASE Solution (pH=10.5) was used and shaken prior to reading using an ELISA reader at 540 nm and the software SoftMax Pro 4.8. For each compound, 50% growth inhibition (GI50) was calculated from Sigmoidal dose-response curves (variable-slope) that were generated with data obtained from experiments carried out in triplicates (GI50 values were generated with GraphPad Prism V. 6.02, GraphPad Software, Inc.).

MDA-MB-231 [1] = test: Initial screening, SRB assay GI50; assay type: cell-based; conditions: Homo sapiens, 48 hrs
Protocol: as §1, §2

MDA-MB-435 [2] = test: Initial screening, SRB assay GI50; assay type: cell-based; conditions: Homo sapiens, 48 hrs, read-out: MDA-MB435 GI50
Protocol: as §1, §2

MDA-MB-231 [3] = test: Cell viability assay (MTT); assay type: cell-based; conditions: Homo sapiens, MDA-MB-231
Protocol: Cells plated at equal density were treated at 500 nM of compounds. […]
(§3) Cells plated at equal density were treated at 250 nM of 4c at 250 nM.
(§4) Data from 3 biologic replicates each with 2 technical replicates. Four parameter dose-response curves generated using GraphPad Prism are shown.
Cell viability relative to vehicle (100%) is shown.
(§5) […] Using CellTiter 96 Non-Radioactive Cell Proliferation Assay (Promega, Corp.) according to manufactures' instructions, formazan was used as an indicator of viable cells at an absorbance 570 nm in a Tecan Microplate Reader M100. Data was calculated as fold change from vehicle and fitted using the 4′parameter logic nonlinear regression model in GraphPad Prism software. (n=3 biologic replicates: with 3 technical replicates each).
A range of compounds were tested by MTT assays for cell viability in MDA-MB-231 triple negative breast cancer (TNBC) cells and MDA-MB-435 HER2++ cancer cells.

MDA-MB-435 [4] = test: Cell viability assay (MTT); assay type: cell-based, human; conditions: Homo sapiens, MDA-MB-435
Protocol: Cells plated at equal density were treated at 500 nM of compounds. After 72 hours, cell viability was measured by a MTT assay. n=3; * p<0.05, ** p<0.01, *** p<0.001.
as §3, §4
[…]. GI50 was calculated using Graph pad Prism.
as §5
A range of compounds were tested by MTT assays for cell viability in MDA-MB-231 triple negative breast cancer (TNBC) cells and MDA-MB-435 HER2++ cancer cells. […].

Panc-1 = test: Cell viability assay (MTT); assay type: cell-based; conditions: Homo sapiens, 120 hours, 0-1000 nM
Protocol: as §5

Rac1 = molecular target: T1, Rac1 (Homo sapiens, UniProt P63000); test: Rac activation assay (PAK-PBD pulldown); assay type: cell-based; conditions: 250 nM, 24 hours, MDA-MB-231
T1 construct: endogenous in cells; host or cells: MDA-MB-231
Protocol: MDA-MB-231 breast cancer cells were treated for 24 hours with 0 or 250 nM 4c. Cells were lysed and equal amounts of proteins were subjected to pull-down assays using the p21-binding domain of PAK to isolate GTP bound Rac. Top panel, pulldown showing GTP bound Rac1; middle panel, total Rac1 in lysates; bottom panel, actin as a loading control.
MDA-MB-231 triple negative breast cancer cells were seeded at equal density and treated with vehicle or Compound 4c for 24 hrs at various concentrations. Rac-GTP was detected using Rac Activity Assay, as per manufacturer's instructions (Cell Signaling). Briefly, total cell lysates were quantified and added equally to Pak-PBD beads. After 1 hr of incubation, beads were washed and Rac1-GTP (in pellets) or total Rac1 (in cell lysates) was detected by western blot using Rac1 antibody. (n=3 biological replicates).

[5] = test system: RAW264.7 macrophage cell line; test: Wound healing assay; assay type: cell-based, murine; conditions: Mus musculus, read-out: inhibition of wound closure, RAW264.7
Protocol: Mircrographs were digitally acquired at 0, 12, and 24 hours and the area of the wound quantified relative to the distance at time 0. n=3.
Murine macrophage cell line, RAW264.7, plated at equal density were subjected to a scratch in the center and treated with 4c at 0, 150 nM, 250 nM, or 500 nM. Mircrographs were digitally acquired at 0, 12, and 24 hours and the area of the wound quantified relative to the distance at time 0. n=3.

GI50 (MCF-7): 3200 nM
GI50 (MDA-MB-231 [1]): 17200 nM
GI50 (MDA-MB-435 [2]): 1600 nM
GI50 (MDA-MB-231 [3]; summary over breast cancer cell lines, read-out: GI50 for breast cancer cell viability inhibition): ~300 nM
GI50 (MDA-MB-435 [4]; 120 hours, 0-1000 nM, read-out: GI50, MDA-MB-435): 261 nM
GI50 (Panc-1): 235 nM
reduction of Rac1 activation by GTP loading (Rac1): 85%
Structure (SMILES): CCn1c2ccccc2c2cc(-n3nnc(C(O)c4cccc(OC)c4)c3-c3ccccc3)ccc21 (stereo not shown) [Compound 4c, (1-(9-ethyl-9H-carbazol-3-yl)-5-phenyl-1H-1,2,3-triazol-4-yl) (3-methoxyphenyl) methanol]
cytotoxicity at 0.5 µM (MDA-MB-231 [3]; 500 nM, 72 hours, read-out: inhibition of MDA-MB-231 cell viability): < 50%
inhibition at […] (MDA-MB-435 [4]; 250 nM (FIG. 1C), read-out: inhibition of MDA-MB-435 cells): ~60%
cytotoxicity at 0.5 µM (MDA-MB-435 [4]; 500 nM, 72 hours, read-out: decrease in cell viability, MDA-MB-435): ~80%
inhibition at 0.15 µM ([5]; 150 nM): 50%
inhibition at […] ([5]; 250 nM): 80%
inhibition at 0.5 µM ([5]; 500 nM): 90%
